What was measured:
V79 [1] = assay: Cytotoxicity of compound was measured against suspended V79 cells under hypoxic conditions in clonogenic assay; type: functional, Cricetulus griseus
V79 [2] = assay: Cytotoxicity of compound was measured against suspended V79 cells under aerobic conditions in clonogenic assay; type: functional, Cricetulus griseus
[3] = Ratio (HS) of CT50 values in aerobic condition to hypoxic condition (in N2 presence) given as CT50(A)/CT50(H); type: functional
[4] = Concentration required to reduce fluorescence in ethidium bromide displacement assay using EB-DNA complex
[5] = In vitro therapeutic index of compound was measured inV79 cells; type: cell-based, Cricetulus griseus; conditions: chinese hamster, V79 cells; read-out: T.I.
[6] = Partition coefficient in octanol/water; type: physicochemical

| SMILES | CT50 (V79 [1]) [µM] | CT50 (V79 [2]) [µM] | Ratio [3] | C50 [4] [µM] | selectivity ratio [5] | PC [6] |
| --- | --- | --- | --- | --- | --- | --- |
| Cl.O=[N+]([O-])c1nccn1CCCNc1c2ccccc2nc2ccccc12 | 15 | 84 | 5.5 | 9 | 11 | 0.07 |
| Cl.O=[N+]([O-])c1nccn1CCCNc1c2c(nc3ccccc13)CCSC2 | 68 | 580 | 9 | 58 | 15 | 0.4 |
| Cl.O=[N+]([O-])c1nccn1CCCNc1c2c(nc3ccccc13)CCCC2 | 33 | 360 | 11 | 58 | 20 | 0.14 |
| CN1CCc2nc3ccccc3c(NCCCn3ccnc3[N+](=O)[O-])c2C1.Cl |  | 426 | 2.2 | 45 | 7 | 0.41 |
